Data from PMC8657723, “Novel Pituitary Actions of TAC4 Gene Products in Teleost” (International Journal of Molecular Sciences, 2021).

Tested on: grass carp pituitary cells
Assay: Receptor antagonist / pathway inhibitor co-treatment on HK2-induced mRNA expression in grass carp pituitary cells
Assay type: cell-based, grass carp (Ctenopharyngodon idellus)
Conditions: 24 h co-treatment
Procedure: In this experiment, a pharmacological approach was used to clarify the receptor specificity for SLα and PRL regulation by HK2. Pituitary cells were incubated for 24 h with grass carp HK2 (1 μM) with simultaneous treatment of the NK1R antagonist Rolaptiant (10 μM) or NK3R antagonist SB222200 (10 μM), respectively.
Figure 7 The receptor specificity and signal transduction for PRL and SLα regulation by HK2 in grass carp pituitary cells. (A) Effects of NKR subtype-specific antagonists on HK2-induced PRL and SLα mRNA expression. Pituitary cells were challenged for 24 h with grass carp HK2 (1 μM) in the presence or absence of the NK1R antagonist Rolaptiant (10 μM) or NK3R antagonist SB22200 (10 μM), respectively. (B) Effects of 24-h co-treatment with AC inhibitor MDL12330A (10 μM) or PKA inhibitor H89 (10 μM) on HK2-induced PRL and SLα mRNA expression. (C) Effects of 24-h co-treatment with PLC inhibitor U73122, PKC inhibitor GF109203X (10 μM), or IP3 receptor blocker 2-APB (10 μM) on HK2-induced PRL and SLα mRNA expression. (D) Effects of 24-h co-treatment with the VSCC inhibitor nifedipine (10 μM), CaM antagonist calmidazolium (1 μM) or CaMK-II blocker KN62 (10 μM) on HK2-induced PRL and SLα mRNA expression. After drug treatment, the total RNA of the cells was extracted by the Trizol method, and the expression of various genes was detected by RT-PCR. Data presented were expressed as mean ± SEM, and the differences between groups were significant at p-value < 0.05 by labeling diverse letters.
Figure 8 The receptor specificity and signal transduction for CART2, NMB1, and UTS1 regulation by HK2 in grass carp pituitary cells. (A) The pituitary cells were treated for 24 h with grass carp HK2 (1 μM) in the presence or absence of NK1R antagonist Rolaptiant (10 μM) or NK3R antagonist SB222200 (10 μM). (B) Effects of 24-h co-treatment with an AC inhibitor MDL12330A (10 μM) or PKA inhibitor H89 (10 μM) on HK2-induced CART2, UTS1, or NMB1 mRNA expression. (C) Effects of 24h co-treatment with a PLC inhibitor U73122, PKC inhibitor GF109203X (10 μM), or IP3 receptor blocker 2-APB (10 μM) on HK2-induced CART2, UTS1 or NMB1 mRNA expression. (D) Effects of 24-h co-treatment with the VSCC inhibitor nifedipine (10 μM), CaM antagonist calmidazolium (1 μM), or CaMK-II blocker KN62 (10 μM) on HK2-induced CART2, UTS1 or NMB1 mRNA expression.

Row | Structure (SMILES) | effect on HK2-induced CART2 mRNA expression (inhibitor 10 μM with HK2 1 μM) | effect on HK2-induced NMB1 mRNA expression (inhibitor 10 μM with HK2 1 μM) | effect on HK2-induced PRL mRNA expression (inhibitor 10 μM with HK2 1 μM) | effect on HK2-induced SLα mRNA expression (inhibitor 10 μM with HK2 1 μM) | effect on HK2-induced UTS1 mRNA expression (inhibitor 10 μM with HK2 1 μM) | effect on HK2-induced CART2 mRNA expression (inhibitor 1 μM with HK2 1 μM) | effect on HK2-induced NMB1 mRNA expression (inhibitor 1 μM with HK2 1 μM) | effect on HK2-induced PRL mRNA expression (inhibitor 1 μM with HK2 1 μM) | effect on HK2-induced SLα mRNA expression (inhibitor 1 μM with HK2 1 μM) | effect on HK2-induced UTS1 mRNA expression (inhibitor 1 μM with HK2 1 μM)
1 | NCCOB(c1ccccc1)c1ccccc1 [2-APB] | effective in blocking | effective in blocking | totally abolished | totally abolished | effective in blocking |  |  |  |  | 
2 | O=S(=O)(NCCNC/C=C/c1ccc(Br)cc1)c1cccc2cnccc12 [H89] | abolished | abolished | effective in blocking | effective in blocking | abolished |  |  |  |  | 
3 | CN([C@@H](Cc1ccc(OS(=O)(=O)c2cccc3cnccc23)cc1)C(=O)N1CCN(c2ccccc2)CC1)S(=O)(=O)c1cccc2cnccc12 [KN62] | suppressed/totally abolished | suppressed/totally abolished | suppressed or totally abolished | suppressed or totally abolished | suppressed/totally abolished |  |  |  |  | 
4 | COC(=O)C1=C(C)NC(C)=C(C(=O)OC)C1c1ccccc1[N+](=O)[O-] [nifedipine] | suppressed/totally abolished | suppressed/totally abolished | suppressed or totally abolished | suppressed or totally abolished | suppressed/totally abolished |  |  |  |  | 
5 | CC[C@H](NC(=O)c1c(C)c(-c2ccccc2)nc2ccccc12)c1ccccc1 [SB222200] | totally abolished | totally abolished | could not be totally abolished | totally blocked | totally abolished |  |  |  |  | 
6 | COc1ccc2c(c1)CC[C@@H]1[C@@H]2CC[C@]2(C)[C@@H](NCCCCCCN3C(=O)C=CC3=O)CC[C@@H]12 [U73122] | effective in blocking | effective in blocking | totally abolished | totally abolished | effective in blocking |  |  |  |  | 
7 | Clc1ccc(C(c2ccc(Cl)cc2)n2cc[n+](CC(OCc3ccc(Cl)cc3Cl)c3ccc(Cl)cc3Cl)c2)cc1 (stereo not drawn) [calmidazolium] |  |  |  |  |  | suppressed/totally abolished | suppressed/totally abolished | suppressed or totally abolished | suppressed or totally abolished | suppressed/totally abolished
8 | CN(C)CCCn1cc(C2=C(c3c[nH]c4ccccc34)C(=O)NC2=O)c2ccccc21 [GF109203X] | effective in blocking | effective in blocking | totally abolished | totally abolished | effective in blocking |  |  |  |  | 
9 | C[C@@H](OC[C@@]1(c2ccccc2)CC[C@]2(CCC(=O)N2)CN1)c1cc(C(F)(F)F)cc(C(F)(F)F)c1 [Rolaptiant] |  | not with the NK1R antagonist Rolaptiant | could not be totally abolished | only partially block |  |  |  |  |  | 
10 | Cl.c1ccc(C2CCCC2NC2=NCCCCCCCCCCC2)cc1 (stereo not drawn) [MDL12330A] | abolished | abolished | effective in blocking | effective in blocking | abolished |  |  |  |  | 
